The results in this text go back to ChEMBL document CHEMBL5576105, “Synthesis and biological evaluation of O4'-benzyl-hispidol derivatives and analogs as dual monoamine oxidase-B inhibitors and anti-neuroinflammatory agents” (Bioorg Med Chem, 2024).

For series [1], the target named is T1, Amine oxidase [flavin-containing] B (Homo sapiens, UniProt P27338).
T1 sequence (P27338 whole entry): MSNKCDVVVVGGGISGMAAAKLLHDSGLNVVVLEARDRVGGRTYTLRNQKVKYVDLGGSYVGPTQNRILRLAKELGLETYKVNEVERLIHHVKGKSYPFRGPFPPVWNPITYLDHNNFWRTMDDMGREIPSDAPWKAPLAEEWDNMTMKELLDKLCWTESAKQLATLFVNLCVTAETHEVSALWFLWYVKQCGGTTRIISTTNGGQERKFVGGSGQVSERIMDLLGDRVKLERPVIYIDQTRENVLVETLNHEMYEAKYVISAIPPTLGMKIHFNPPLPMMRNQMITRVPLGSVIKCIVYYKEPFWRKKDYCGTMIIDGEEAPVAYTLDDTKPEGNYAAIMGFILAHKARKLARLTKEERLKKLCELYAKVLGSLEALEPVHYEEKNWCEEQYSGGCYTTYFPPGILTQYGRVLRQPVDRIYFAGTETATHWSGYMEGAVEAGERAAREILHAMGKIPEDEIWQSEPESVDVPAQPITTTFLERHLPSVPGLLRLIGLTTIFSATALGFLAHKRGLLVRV
Put plainly: Inhibition of human recombinant MAO-B expressed in baculovirus-infected BTI cells using benzylamine as substrate preincubated with enzyme for 15 mins followed by substrate addition and measured after 20 mins by Amplex Red reagent based fluorescence analysis.

Series [2] concerns the target T2, Amine oxidase [flavin-containing] A (Homo sapiens, UniProt P21397).
T2 sequence (P21397 whole entry): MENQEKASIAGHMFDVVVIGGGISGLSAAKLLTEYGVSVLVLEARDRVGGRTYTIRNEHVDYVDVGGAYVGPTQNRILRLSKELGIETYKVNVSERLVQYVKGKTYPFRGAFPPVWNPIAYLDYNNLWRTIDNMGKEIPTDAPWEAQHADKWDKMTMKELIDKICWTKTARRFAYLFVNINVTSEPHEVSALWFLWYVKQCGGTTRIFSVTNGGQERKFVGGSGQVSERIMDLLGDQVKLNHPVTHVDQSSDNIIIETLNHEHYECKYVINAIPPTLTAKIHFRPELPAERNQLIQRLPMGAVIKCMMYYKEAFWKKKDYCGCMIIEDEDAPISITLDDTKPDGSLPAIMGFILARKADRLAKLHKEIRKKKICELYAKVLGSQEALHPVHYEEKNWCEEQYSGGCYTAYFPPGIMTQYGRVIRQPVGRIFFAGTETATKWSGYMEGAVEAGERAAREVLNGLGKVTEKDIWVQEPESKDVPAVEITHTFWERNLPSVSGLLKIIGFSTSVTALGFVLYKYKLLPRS
The series is described as follows: Inhibition of human recombinant MAO-A using p-tyramine as substrate preincubated with enzyme for 15 mins followed by substrate addition and measured after 20 mins by Amplex Red reagent based fluorescence analysis.

The species named for another series is Homo sapiens. The series is described as follows: Selectivity index, ratio of IC50 for inhibition of human recombinant MAO-A to IC50 for inhibition of human recombinant MAO-B expressed in baculovirus-infected BTI cells.
Series [3] has as its target T1, Amine oxidase [flavin-containing] B. Put plainly: Inhibition of human recombinant MAO-B expressed in baculovirus-infected BTI cells at 10 uM using benzylamine as substrate preincubated with enzyme for 15 mins followed by substrate addition and measured after 20 mins by Amplex Red reagent based fluorescence analysis. The settings on record: time 35 min.
The test system of the next series is MAO-B. The series is described as follows: Safety ratio of cytotoxicity against mouse BV-2 cells to IC50 for inhibition of human recombinant MAO-B expressed in baculovirus-infected BTI cells. It is filed as toxicity.
Series [4] deals with BV-2. The series is described as follows: Cytotoxicity against mouse BV-2 cells assessed as effect on cell viability upto 10 uM. It is filed as toxicity, cell-based. Particulars: bv-2, 10 µM.
Series [5] has as its system BV-2. Put plainly: Anti-neuroinflammatory activity against mouse BV-2 cells assessed as suppression of LPS-induced NO production at 3 uM. It counts as functional, cell-based.
Series [6] deals with T1, Amine oxidase [flavin-containing] B. Put plainly: Irreversible inhibition of MAO-B (unknown origin) measured after drug wash-out.
Series [7] has as its system BV-2. The series is described as follows: Anti-neuroinflammatory activity against mouse BV-2 cells assessed as suppression of LPS-induced PGE2 production at 5 to 10 uM. It counts as functional, cell-based. The settings on record: dose 5-10 µM.
In series [8] the test system is BV-2. The series is described as follows: Anti-neuroinflammatory activity against mouse BV-2 cells assessed as suppression of LPS-induced NO production at 1 uM. It counts as functional, cell-based.
The test system of series [9] is BV-2. Put plainly: Anti-neuroinflammatory activity against mouse BV-2 cells assessed as suppression of LPS-induced NO production. It is filed as functional, cell-based.
The test system of series [10] is BV-2. Put plainly: Cytotoxicity against mouse BV-2 cells assessed as effect on cell viability at 30 uM. It counts as toxicity, cell-based. Particulars: bv-2, 30 µM.
The subject of series [11] is BV-2. Put plainly: Anti-neuroinflammatory activity against mouse BV-2 cells assessed as suppression of LPS-induced PGE2 production. It is filed as functional, cell-based. Particulars: dose 5-10 µM.
Series [12] concerns BV-2. Put plainly: Anti-neuroinflammatory activity against mouse BV-2 cells assessed as suppression of LPS-induced NO production at 10 uM. It counts as functional, cell-based.
Series [13] has as its system BV-2. Put plainly: Anti-neuroinflammatory activity against mouse BV-2 cells assessed as suppression of LPS-induced PGE2 production at 10 uM. It counts as functional, cell-based.

The source made the active and inactive calls. The rule behind the calls is not given here.

In the case of `O=C1/C(=C/c2cccc(OCc3ccccc3F)c2)Oc2cc(O)ccc21`, the IC50 was 950 nM in series [1] and above 100000 nM in series [2]. In addition, the Ratio IC50 in the series filed under Homo sapiens is above 106. The inhibition at 10 µM in series [3] stood at 73.9%.
The matching figures for `O=C1/C(=C/c2cccc(OCc3ccc(F)cc3)c2)Oc2cc(O)ccc21`: 2370 nM, above 100000 nM, above 42.2 and 60.7%.
For `O=C1/C(=C/c2ccc(OCc3ccc(Br)cc3)cc2)Oc2cc(O)ccc21`, the inhibition at 10 µM in [3] amounted to 41.1%.
On the same count and under the same terms, to `O=C1/C(=C/c2ccc(OCc3cccc([N+](=O)[O-])c3)cc2)Oc2cc(O)ccc21` belongs 48.5%.
In the case of `O=C1/C(=C/c2cccc(OCc3ccc(Br)cc3)c2)Oc2cc(O)ccc21`, the half-maximal inhibitory concentration (IC50) in series [1] is 1670 nM; in series [2], above 100000 nM. In the series filed under Homo sapiens, the Ratio IC50 was above 59.9. The inhibition at 10 µM in series [3] was found to be 69.6%.
For the compound `O=C1/C(=C/c2cccc(OCc3ccccc3Cl)c2)Oc2cc(O)ccc21`, the inhibition at 10 µM in [3] came out at 41.7%.
Take `O=C1/C(=C/c2ccc(OCc3cccc(Br)c3)cc2)Oc2cc(O)ccc21`: the concentration for half-maximal inhibition (IC50) in series [1] was 950 nM; in [2], above 100000 nM. Also, in the series on MAO-B, the selectivity ratio came to 10.6. In addition, the Ratio IC50 in the series listed under Homo sapiens is above 106. In addition, the Activity result in the series with BV-2 [4] is “Non-Toxic”. Besides, the inhibition at 10 µM in series [3] worked out at 67.9%.
On to `O=C1/C(=C/c2ccc(OCc3ccccc3Cl)cc2)Oc2cc(O)ccc21`, for which the half-maximal inhibitory concentration (IC50) in series [1] is 380 nM; in series [2] it was above 100000 nM. Also, the outcome with BV-2 [5] and in the series on BV-2 [7] was Active. For the same compound, in series [6], the “inhibition (INH)” value is recorded as “Active”. For the same compound, in the series with MAO-B, the selectivity ratio is above 27. Besides, the outcome in the series with BV-2 [8] was inactive. Besides, the Ratio IC50 in the series listed under Homo sapiens was above 264. For the same compound, the Activity result is “Dose-Dependent Effect” with BV-2 [9] and “Non-Toxic” with BV-2 [4]. In addition, in [3], the inhibition at 10 µM amounted to 81.3%.
Regarding `O=C1/C(=C/c2ccc(OCc3ccccc3)cc2)Oc2cc(O)ccc21`, the IC50 in series [1] was 720 nM; in series [2], above 100000 nM. Further, the Activity entry in the series with BV-2 [10] was “Non-Toxic”; in the series on BV-2 [11] it was “Dose-Dependent Effect”; in the series on BV-2 [9], “Dose-Dependent Effect”; in the series on BV-2 [4], “Non-Toxic”. Besides, the outcome with BV-2 [7] and with BV-2 [12] was Active. Moreover, the selectivity ratio in the series on MAO-B is above 41.6. Further, the Ratio IC50 in the series listed under Homo sapiens is above 138. For the same compound, the inhibition at 10 µM in series [3] amounted to 86.7%.
Take `O=C1/C(=C/c2ccc(OCc3ccccc3F)cc2)Oc2cc(O)ccc21`: the half-maximal inhibitory concentration (IC50) in series [1] was 760 nM; in [2], above 100000 nM. Moreover, the selectivity ratio in the series with MAO-B is above 13.1. Further, in the series filed under Homo sapiens, the Ratio IC50 was above 131. In addition, the Activity entry with BV-2 [4] was “Non-Toxic”. Also, the inhibition at 10 µM in series [3] was 74.2%.
For the compound `O=C1/C(=C/c2ccc(OCc3ccccc3Br)cc2)Oc2cc(O)ccc21`, the IC50 in [1] was 440 nM; in series [2] it was above 100000 nM. For the same compound, in the series on MAO-B, the selectivity ratio is above 6. For the same compound, the Ratio IC50 in the series listed under Homo sapiens was above 227. Also, the inhibition at 10 µM in [3] was found to be 81.7%.
On to `O=C1/C(=C/c2cccc(OCc3cccc(Cl)c3)c2)Oc2cc(O)ccc21`, for which the concentration for half-maximal inhibition (IC50) is 1910 nM in series [1] and above 100000 nM in [2]. The Ratio IC50 in the series listed under Homo sapiens was above 52.3. Moreover, the inhibition at 10 µM in series [3] is 61.7%.
The matching figures for `O=C1/C(=C/c2cccc(OCc3ccccc3)c2)Oc2cc(O)ccc21`: 1110 nM, above 100000 nM, above 89.8 and 77.8%.
On to `COc1ccc(/C=C2\Oc3cc(O)ccc3C2=O)c(OC)c1OC`, for which the IC50 in series [2] was above 100000 nM. In addition, the Ratio IC50 in the series filed under Homo sapiens was above 583.
For `O=C1/C(=C/c2cccc(OCc3ccc(Cl)cc3)c2)Oc2cc(O)ccc21`, the IC50 in series [1] was 1810 nM; in series [2] it was above 100000 nM. The Ratio IC50 in the series filed under Homo sapiens is above 55.2. Further, the inhibition at 10 µM in [3] was 70.7%.
Turning to `O=C1/C(=C/c2cccc(OCc3cccc([N+](=O)[O-])c3)c2)Oc2cc(O)ccc21`, the inhibition at 10 µM in series [3] stood at 33.9%.
`O=C1/C(=C/c2ccc(OCc3cccc(F)c3)cc2)Oc2cc(O)ccc21`: in series [3], the inhibition at 10 µM was 55.3%.
On the same count and under the same terms, next, `COc1cccc(COc2ccc(/C=C3\Oc4cc(O)ccc4C3=O)cc2)c1`: 59.7%; `O=C1/C(=C/c2cccc(OCc3cccc(F)c3)c2)Oc2cc(O)ccc21`: 55.1%.
For the compound `O=C1/C(=C/c2ccc(OCc3ccc(F)cc3)cc2)Oc2cc(O)ccc21`, the 50% inhibitory concentration (IC50) in series [1] was 1000 nM; in series [2] it was above 100000 nM. For the same compound, the outcome in the series with BV-2 [5] and in the series on BV-2 [13] was Active. Further, the Activity entry is “Non-Toxic” in the series on BV-2 [10], “Dose-Dependent Effect” in the series with BV-2 [11], “Dose-Dependent Effect” in the series on BV-2 [9] and “Non-Toxic” in the series on BV-2 [4]. Besides, the selectivity ratio in the series on MAO-B was above 30. Also, the result in the series on BV-2 [8] was inactive. Moreover, the Ratio IC50 in the series filed under Homo sapiens is above 100. The inhibition at 10 µM in [3] was found to be 68.2%.
In the case of `O=C1/C(=C/c2ccc(OCc3ccc(Cl)cc3)cc2)Oc2cc(O)ccc21`, the inhibition at 10 µM in [3] turned out to be 35.6%.
Same read-out and setting: next, `O=C1/C(=C/c2ccc(OCc3cccc(Cl)c3)cc2)Oc2cc(O)ccc21`: 59%; `O=C1/C(=C/c2cccc(OCc3ccccc3Br)c2)Oc2cc(O)ccc21`: 36%.
Consider `COc1cccc(COc2cccc(/C=C3\Oc4cc(O)ccc4C3=O)c2)c1`, for which the results for the IC50 in series [1] and in series [2] were 1060 nM and above 30000 nM, respectively. For the same compound, the Ratio IC50 in the series listed under Homo sapiens was above 28.4. In addition, the inhibition at 10 µM in [3] worked out at 70.1%.
The matching figures for `O=C1/C(=C/c2cccc(OCc3cccc(Br)c3)c2)Oc2cc(O)ccc21`: 2020 nM, above 100000 nM, above 49.6 and 62.7%.

Usually IC50 stands for the concentration that inhibits the measured activity by half. By inhibition is commonly meant how much of the control response was suppressed.
